Source: patent publication US20230020320A1, “Liquid Composition for Cleaning, Sanitizing and/or Disinfecting” (CORTICALIS AS, priority 2020, published 2023)
“Also recorded” adds a separate entry of the source. Where two headings read alike, the source gives them in different places.

Tests used:
S. epidermidis [1] = experiment: Regrowth of luciferase-harbouring bacteria on sanitized titanium surfaces, fluorometer; format: cell-based; conditions: 5 minutes in sanitizing solution; for Time until regrowth of the biofilm after cleaning: then BHI medium at 37 centigrade, hourly reading
Procedure: Regrowth of S. epidermidis after sanitizing a contaminated titanium surface Regrowth of S. epidermidis bacteria harbouring the luciferase gene making them fluorescent, on sanitized titanium surfaces. Surfaces was first contaminated with bacteria and incubated in BHI broth until the surfaces were completely covered in biofilm. The titanium discs were then submerged in sanitizing solution and left on a slow shaker for 5 minutes. After sanitizing the discs were rinsed in a large volume of sterile water, then covered by BHI medium again and incubated at 37 centigrade. At hourly intervals the discs were placed in a fluorometer to measure regrowth of bacteria by amount of fluorescent as compared to an untreated calibrated control and a sterile disc.

[2] = cited from earlier work
S. epidermidis [3] = experiment: Staining of living and dead bacteria on decontaminated titanium surfaces, confocal microscope; format: cell-based; conditions: submerged in sanitizing solution 5 minutes on slow shaker
Procedure: Titanium surfaces contaminated with S. epidermidis bacteria and grown to biofilm in BHI broth was removed from growth medium and submerged in sanitizing solution for 5 minutes on a slow shaker. Discs were sanitized with A) saline (Negative control), B) Chlorhexidine 0.2% w/v, or C) H2O2 3% v/v+f-127 pluronic Acid 5% w/v. After cleaning the surfaces were stained with fluorescent dyes, green for living microbes and red for dead microbes. […] Surfaces were visualized in a confocal microscope after cleaning and staining (FIG. 4).

[4] = system: non-spore forming bacteria; conditions: in less than 30 seconds, in the laboratory and on human skin; cited from earlier work

SMILES | Time until regrowth of the biofilm after cleaning (S. epidermidis [1]) | Effect on wound healing ([2]; 0.03% v/v solution, only if not applied repeatedly) | Effect on wound healing ([2]; 0.5% v/v solution) | Killing of microbes (green living / red dead staining) (S. epidermidis [3]) | Removal of biofilm/contamination from titanium surface (S. epidermidis [3]) | Biofilm remaining on the surface (S. epidermidis [1]) | Killing of bacteria (S. epidermidis [1]) | Non-spore forming bacteria killed [4] [%]
OO [hydrogen peroxide, Hydrogen peroxide] | about 13 hours | may induce healing | impede healing | – | – | – | – | –
N=C(NCCCCCCNC(=N)NC(=N)Nc1ccc(Cl)cc1)NC(=N)Nc1ccc(Cl)cc1 [Chlorhexidine 0.2% w/v, Chlorhexidine] | no regrowth observed | – | – | killed all microbes; also recorded: killed all bacteria | left the dead cells to contaminate the surface; also recorded: left them to contaminate the surface | the dead biofilm stuck and remained on the surface | killed all bacteria | –
CC(C)O [Isopropyl alcohol] | – | – | – | – | – | – | – | ≥ 99.99
